Where “and” joins values, the source holds several entries; their conditions need not be identical. Equal entries are not always repeated.

What all share (assay type): cell-based
Assay [1] deals with Pseudomonas aeruginosa (ATCC 15442) biofilm. Nature of the assay: MBEC biofilm eradication test (Calgary biofilm device). Conditions: one-hour biocide contact time; for MBEC (minimum biofilm eradication concentration): individual determinations. An excerpt:
Table 45 summarizes test results performed at MBEC Biofilm Technologies, Inc., Calgary, Canada on the effectiveness of various biocides on biofilm removal. The test procedure, developed at the University of Calgary, utilizes a device which allows the growth of 96 identical biofilms under carefully controlled conditions. The device consists of a two-part vessel comprised of an upper plate containing 96 pegs that seals against a bottom plate. The bottom plate can consist of either a trough (for biofilm growth) or a standard 96-well plate (for biocide challenge). The biofilms develop on the 96 pegs. The device has been used as a general method for evaluating the efficacy of antibiotics and biocides towards biofilms. See in this connection H. Ceri, et al., “The MBEC Test: A New In Vitro Assay Allowing Rapid Screening for Antibiotic Sensitivity of Biofilm”, Proceedings of the ASM, 1998, 89, 525; Ceri, et al., “Antifungal and Biocide Susceptibility testing of Candida Biofilms using the MBEC Device”, Proceedings of the Interscience Conference on Antimicrobial Agents and Chemotherapy, 1998, 38, 495; and H. Ceri, et al., “The Calgary Biofilm Device: A New Technology for the Rapid Determination of Antibiotic Susceptibility of Bacterial Biofilms”, Journal of Clinical Microbiology, 1999, 37, 1771-1776.
Six biocide systems were evaluated using the above test procedure and test equipment. Five of these systems were oxidizing biocides, viz., chlorine (from NaOCl), halogen (from NaOCl+NaBr), halogen (from BCDMH), bromine (from DBDMH), and chlorine (from trichloroisocyanuric acid), all expressed as bromine as Br2 in mg/L, so that all test results were placed on the same basis. The sixth biocide was glutaraldehyde, a non-oxidizing biocide.
These biocide systems were used to challenge biofilms of Pseudomonas aeruginosa (ATCC 15442). This is a Gram (−) bacterium which is ubiquitous in microbiological slimes found in many water systems. See in this connection J. W. Costerton and H. Anwar, “Pseudomonas aeruginosa: The Microbe and Pathogen”, in Pseudomonas aeruginosa Infections and Treatment, A. L. Baltch and R. P. Smith editors, Marcel Dekker publishers, New York, 1994. In the field of poultry processing, S. Notermans, J. Dormans, and G. C. Mead, Biofouling, 1991, Vol. 5, pages 21-36, report observation of biofilms in poultry slaughter houses by use of scanning electron microscopy.
In Table 45 the MBEC (minimum biofilm eradication concentration) results presented are for the one-hour biocide contact time used in the test. The values given for the halogen containing biocides are expressed in terms of mg/L of bromine as Br2. The data on the glutaraldehyde is in terms of mg/L as active ingredient. […] In fact, only slightly more than one-half as much bromine from DBDMH was required to remove the biofilm as compared to the total halogen, expressed as Br2, that was required from BCDMH.

Assay [2] has as its system Escherichia coli field strain. Nature of the assay: Carcass total bacteria count after 1.5-hour chill tank immersion (Example 1). The conditions noted are these: average of 10 birds; for Mean Bacteria Reduction (carcass): 1.5 h chill tank. An excerpt:
(§1) The effect of these treatments on the residual chill tank water was also investigated. Carcasses were first immersed in a warm bath containing 10^4 E coli per mL of liquid. Carcasses were then immersed in chill tanks containing normal organic fluids (blood, fat, skin, and meat particles) and containing one of the respective microbiocidal compositions under test. Total bacteria count of whole bird (both inside and outside) was used to determine efficacy of various microbiocidal compositions. […] Albemarle Corporation). The trial events and experimental design used were as follows: • a) For all treatments a total of 190 birds were processed in a normal fashion. […] This was best done by grasping the broiler carcass with one hand and the closed top of the bag with the other then rocking with a reciprocal motion in a 18-24 inch arc, assuring that all carcass surfaces (interior and exterior) were rinsed. • h) The rinse solutions were then transferred from each stomacher bag into individual sample bottles, taking care to ensure that the information on the date of collection, time of collection, and treatment group matched that of the sample. Each bottle was sealed with parafilm and stored in a refrigerator. • i) Dilution of the fluids was conducted such that a 25-250 count was present on the MacConkey plate. […] Poultry carcass microbial contamination measurement was achieved by the complete washing of the entire carcass surface (inside and outside) using suitable sterile stripping solution followed by collection and plating of the stripping solution for bacterial enumeration.

The subject of assay [3] is Escherichia coli field strain. Nature of the assay: Chill water bacteria count (Example 1). The conditions noted are these: bacteria count per mL of treatment water.
Source text: as §1

Setting [4] is: 50 ppm Cl2 equivalent (Aquatize: 50 ppm sodium chlorite).
Where [5] appears, read: 100 ppm Cl2 equivalent (Aquatize: 100 ppm sodium chlorite).
Setting [6] is: 150 ppm Cl2 equivalent (Aquatize: 150 ppm sodium chlorite).

For `O=c1n(Cl)c(=O)n(Cl)c(=O)n1Cl` [Trichloroisocyanuric acid, trichloroisocyanuric acid], in assay [1], the “MBEC, avg.” value is 2.0 mg/L of bromine as Br2; the “MBEC (minimum biofilm eradication concentration)” value was 2.6 mg/L of bromine as Br2 and 1.3 mg/L of bromine as Br2.
`O=CCCCC=O` [Glutaraldehyde, glutaraldehyde]: in assay [1], the “MBEC, avg.” value amounted to 50 mg/L as active ingredient and the “MBEC (minimum biofilm eradication concentration)” value is reported as 50, 50 mg/L as active ingredient.
For the compound `[Na+].[O-]Cl` [NaOCl], in assay [1], the “MBEC, avg.” value was 3.8 mg/L of bromine as Br2; the “MBEC (minimum biofilm eradication concentration)” value was 5.0 mg/L of bromine as Br2 and 2.5 mg/L of bromine as Br2.
With `[Br-].[Na+]` [Sodium bromide, sodium bromide], the “Mean Bacteria Reduction (carcass)” value in assay [2] (50 ppm Cl2 equivalent (Aquatize: 50 ppm sodium chlorite), control carcass 2.67 × 10^5 total count) is on record as 92; in assay [2] (setting [5]), 6.54 × 10^2; in assay [2] (setting [6]), 1.73 × 10^3. Further, the “Mean Bacteria Reduction Count (carcass)” value was 92 in assay [2] (setting [4]), 654 in assay [2] (setting [5]) and 1,730 in assay [2] (setting [6]). The “Percent Bacteria Reduction From Control (carcass)” value in assay [2] (setting [4]) came to 0.034%; in assay [2] (setting [5]) it was 0.245%; in assay [2] (setting [6]) it was 0.648%. Further, the “Chill Water Bacteria Count (Mean Bacteria Reduction)” value in assay [3] (50 ppm Cl2 equivalent (Aquatize: 50 ppm sodium chlorite), negative control 5.11 × 10^3) was 4.67 × 10^3 per mL; in assay [3] (setting [5]), 3.49 × 10^3 per mL; in assay [3] (setting [6]), 2.23 × 10^3 per mL.

The record behind these values is patent publication US7767240B2, “Microbiological control in poultry processing” (priority 2001, dated 2010).
